In general, EC50 refers to the midpoint of the concentration-response curve.

Results on 35 compounds are retold here after patent US20100063047A1 (KALYPSYS, INC., priority 2008, published 2010).

The target of one experiment is T1, human H4 (Homo sapiens, UniProt Q9H3N8).
T1 construct: host or cells: CHO-K1, also expressing mitochondrion-targeted aequorin and human Gα16
In words: In vitro histamine H4 receptor cell-based aequorin bioluminescence antagonist assay. The following applies: CHO-K1 cells expressing human H4, aequorin and Gα16; histamine at EC80. The gist of the method: (§1)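 CHO-K1 cells stably expressing human H1 or H4 plus mitochondrial aequorin (H4 also with Gα16), loaded with 5 μM coelenterazine-h for 4 h at ~21 °C. Compounds preincubated 15 min at room temperature, then histamine at EC80 added.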

The next experiment concerns the target T2, human H1 (Homo sapiens, UniProt P35367).
T2 construct: host or cells: CHO-K1, also expressing mitochondrion-targeted aequorin
In words: In vitro histamine H1 receptor cell-based aequorin bioluminescence antagonist assay. As to conditions: CHO-K1 cells expressing human H1 and aequorin; histamine at EC80; read-out: H1 Antagonist EC50. In short, it runs like this: as §1

T2 sequence (P35367 whole entry): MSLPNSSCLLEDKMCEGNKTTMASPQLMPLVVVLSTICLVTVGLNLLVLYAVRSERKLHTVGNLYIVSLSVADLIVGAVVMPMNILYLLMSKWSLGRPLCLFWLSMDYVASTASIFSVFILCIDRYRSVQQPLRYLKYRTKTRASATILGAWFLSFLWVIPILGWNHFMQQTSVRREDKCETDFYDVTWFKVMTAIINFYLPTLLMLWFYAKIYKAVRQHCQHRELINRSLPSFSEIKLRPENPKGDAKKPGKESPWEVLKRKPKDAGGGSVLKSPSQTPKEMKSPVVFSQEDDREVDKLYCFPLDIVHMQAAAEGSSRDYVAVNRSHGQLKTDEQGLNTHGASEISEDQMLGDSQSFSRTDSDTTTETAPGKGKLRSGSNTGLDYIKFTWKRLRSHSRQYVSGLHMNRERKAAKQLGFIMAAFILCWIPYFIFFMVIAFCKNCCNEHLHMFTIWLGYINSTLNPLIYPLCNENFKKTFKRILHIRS
T1 sequence (Q9H3N8 whole entry): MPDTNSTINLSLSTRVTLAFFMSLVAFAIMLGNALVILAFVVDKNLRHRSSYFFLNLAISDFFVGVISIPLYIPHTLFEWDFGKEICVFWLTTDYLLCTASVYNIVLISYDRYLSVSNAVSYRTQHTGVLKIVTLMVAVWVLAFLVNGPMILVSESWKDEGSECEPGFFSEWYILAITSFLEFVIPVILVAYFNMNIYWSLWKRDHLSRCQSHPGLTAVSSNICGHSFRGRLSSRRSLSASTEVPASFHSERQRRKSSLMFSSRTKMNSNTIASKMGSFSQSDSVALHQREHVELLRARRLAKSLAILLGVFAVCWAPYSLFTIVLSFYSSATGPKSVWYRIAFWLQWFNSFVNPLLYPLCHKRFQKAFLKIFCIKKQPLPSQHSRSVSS

On to `Cc1csc2ncnc(N(CCC#N)Cc3cccnc3)c12` [Example 232, 3-({5-methylthieno[2,3-d]pyrimidin-4-yl}(pyridin-3-ylmethyl)amino)propanenitrile], for which the EC50 on human H4 and on human H1 was more than 10 µM each time.

For the compound `Cc1csc2ncnc(N3CCN(c4ccccc4)CC3)c12` [Example 233, 1-{5-methylthieno[2,3-d]pyrimidin-4-yl}-4-phenylpiperazine], the EC50 at human H4 and on human H1 was more than 10 µM throughout.

Take `Cc1csc2ncnc(N3CCN(c4ccccn4)CC3)c12` [Example 234, 1-{5-methylthieno[2,3-d]pyrimidin-4-yl}-4-(pyridin-2-yl)piperazine]: the EC50 at human H4 and at human H1 was more than 10 µM each time.

In the case of `Cc1csc2ncnc(N(CCO)[C@H](C)c3ccccc3)c12` [Example 236, 2-({5-methylthieno[2,3-d]pyrimidin-4-yl}[(1R)-1-phenylethyl]amino)ethan-1-ol], the EC50 at human H4 and on human H1 was more than 10 µM each time.

Regarding `Cc1csc2ncnc(N(CCCO)Cc3ccccn3)c12` [Example 237, 3-({5-methylthieno[2,3-d]pyrimidin-4-yl}(pyridin-2-ylmethyl)amino)propan-1-ol], the EC50 at human H4 and at human H1 was more than 10 µM throughout.

Turning to `Cc1csc2ncnc(N(C)CC(O)c3ccc(O)cc3)c12` (stereo not shown) [Example 238, 4-{1-hydroxy-2-[methyl({5-methylthieno[2,3-d]pyrimidin-4-yl})amino]ethyl}phenol], the EC50 at human H4 and on human H1 was more than 10 µM in each case.

On to `Cc1csc2ncnc(N3CCN(C4CCCCC4)CC3)c12` [Example 239, 1-cyclohexyl-4-{5-methylthieno[2,3-d]pyrimidin-4-yl}piperazine], for which the EC50 on human H4 and at human H1 was more than 10 µM each time.

Take `Cc1csc2ncnc(N3CCCN(Cc4ccccc4)CC3)c12` [Example 242, 1-benzyl-4-{5-methylthieno[2,3-d]pyrimidin-4-yl}-1,4-diazepane]: the EC50 on human H4 and on human H1 was more than 10 µM in each case.

Consider `Cc1csc2ncnc(N3CCN(c4ccc(O)cc4)CC3)c12` [Example 243, 4-(4-{5-methylthieno[2,3-d]pyrimidin-4-yl}piperazin-1-yl)phenol], for which the EC50 on human H4 and at human H1 was more than 10 µM throughout.

In the case of `Cc1csc2ncnc(N(CCN(C)C)Cc3ccccc3)c12` [Example 244, N-benzyl-N-[2-(dimethylamino)ethyl]-5-methylthieno[2,3-d]pyrimidin-4-amine], the EC50 at human H4 and at human H1 was more than 10 µM each time.

For the compound `Cc1csc2ncnc(N3CCN(c4ccccc4F)CC3)c12` [Example 245, 1-(2-fluorophenyl)-4-{5-methylthieno[2,3-d]pyrimidin-4-yl}piperazine], the EC50 at human H4 and at human H1 was more than 10 µM in each case.

Consider `Cc1csc2ncnc(N3CCN(c4ccc(F)cc4)CC3)c12` [Example 246, 1-(4-fluorophenyl)-4-{5-methylthieno[2,3-d]pyrimidin-4-yl}piperazine], for which the EC50 at human H4 and at human H1 was more than 10 µM each time.

Take `Cc1csc2ncnc(N(C)C[C@H](O)c3ccc(O)c(O)c3)c12` [Example 248, 4-[(1R)-1-hydroxy-2-[methyl({5-methylthieno[2,3-d]pyrimidin-4-yl})amino]ethyl]benzene-1,2-diol]: the EC50 on human H4 and on human H1 was more than 10 µM throughout.

For `CCOC(=O)CC1C(=O)NCCN1c1ncnc2scc(C)c12` (stereo not shown) [Example 249, ethyl 2-(1-{5-methylthieno[2,3-d]pyrimidin-4-yl}-3-oxopiperazin-2-yl)acetate], the EC50 on human H4 and on human H1 was more than 10 µM in each case.

`Cc1cccc(N2CCN(c3ncnc4scc(C)c34)CC2)c1C` [Example 254, 1-(2,3-dimethylphenyl)-4-{5-methylthieno[2,3-d]pyrimidin-4-yl}piperazine]: the EC50 at human H4 and at human H1 was more than 10 µM each time.

Regarding `Cc1ccc(N2CCN(c3ncnc4scc(C)c34)CC2)cc1C` [Example 257, 1-(3,4-dimethylphenyl)-4-{5-methylthieno[2,3-d]pyrimidin-4-yl}piperazine], the EC50 at human H4 and on human H1 was more than 10 µM each time.

Regarding `COc1ccc(N2CCN(c3ncnc4scc(C)c34)CC2)cc1` [Example 261, 1-(4-methoxyphenyl)-4-{5-methylthieno[2,3-d]pyrimidin-4-yl}piperazine], the half-maximal effective concentration (EC50) on human H4 and at human H1 was more than 10 µM each time.

As for `COc1ccccc1N1CCN(c2ncnc3scc(C)c23)CC1` [Example 262, 1-(2-methoxyphenyl)-4-{5-methylthieno[2,3-d]pyrimidin-4-yl}piperazine], the 50% effective concentration (EC50) at human H4 and on human H1 was more than 10 µM each time.

For `COc1cccc(N2CCN(c3ncnc4scc(C)c34)CC2)c1` [Example 263, 1-(3-methoxyphenyl)-4-{5-methylthieno[2,3-d]pyrimidin-4-yl}piperazine], the EC50 on human H4 and on human H1 was more than 10 µM throughout.

As to `COc1ccc(CCN(C)c2ncnc3scc(C)c23)cc1OC` [Example 264, N-[2-(3,4-dimethoxyphenyl)ethyl]-N,5-dimethylthieno[2,3-d]pyrimidin-4-amine], the EC50 on human H4 and at human H1 was more than 10 µM throughout.

`Cc1csc2ncnc(N3CCN(c4cccc(Cl)c4)CC3)c12` [Example 265, 1-(3-chlorophenyl)-4-{5-methylthieno[2,3-d]pyrimidin-4-yl}piperazine]: the EC50 at human H4 and on human H1 was more than 10 µM throughout.

Regarding `Cc1csc2ncnc(N3CCN(c4ccc(F)cc4F)CC3)c12` [Example 267, 1-(2,4-difluorophenyl)-4-{5-methylthieno[2,3-d]pyrimidin-4-yl}piperazine], the EC50 on human H4 and on human H1 was more than 10 µM throughout.

For `Cc1csc2ncnc(N(Cc3cccnc3)Cc3cccnc3)c12` [Example 268, 5-methyl-N,N-bis(pyridin-3-ylmethyl)thieno[2,3-d]pyrimidin-4-amine], the EC50 on human H4 and on human H1 was more than 10 µM each time.

For `CCN(CC)CCN(Cc1ccccc1)c1ncnc2scc(C)c12` [Example 272, N-benzyl-N-[2-(diethylamino)ethyl]-5-methylthieno[2,3-d]pyrimidin-4-amine], the EC50 at human H4 and on human H1 was more than 10 µM throughout.

In the case of `Cc1csc2ncnc(N(C)Cc3cccc4ccccc34)c12` [Example 274, N,5-dimethyl-N-(naphthalen-1-ylmethyl)thieno[2,3-d]pyrimidin-4-amine], the EC50 on human H4 and on human H1 was more than 10 µM in each case.

For the compound `Cc1ccc(Cl)cc1N1CCN(c2ncnc3scc(C)c23)CC1` [Example 275, 1-(5-chloro-2-methylphenyl)-4-{5-methylthieno[2,3-d]pyrimidin-4-yl}piperazine], the EC50 at human H4 and on human H1 was more than 10 µM in each case.

For the compound `COc1cc(CN(C)c2ncnc3scc(C)c23)cc(OC)c1OC` [Example 276, N,5-dimethyl-N-[(3,4,5-trimethoxyphenyl)methyl]thieno[2,3-d]pyrimidin-4-amine], the EC50 on human H4 and on human H1 was more than 10 µM each time.

In the case of `Cc1csc2ncnc(N(C)C(Cc3ccccc3)c3ccccc3)c12` (stereo not shown) [Example 278, N-(1,2-diphenylethyl)-N,5-dimethylthieno[2,3-d]pyrimidin-4-amine], the EC50 at human H4 and at human H1 was more than 10 µM in each case.

For the compound `Cc1csc2ncnc(N3CCC(O)(c4ccc(Cl)cc4)CC3)c12` [Example 280, 4-(4-chlorophenyl)-1-{5-methylthieno[2,3-d]pyrimidin-4-yl}piperidin-4-ol], the half-maximal effective concentration (EC50) at human H4 and at human H1 was more than 10 µM each time.

Turning to `C#CCN(Cc1ccc(Cl)cc1Cl)c1ncnc2scc(C)c12` [Example 281, N-[(2,4-dichlorophenyl)methyl]-5-methyl-N-(prop-2-yn-1-yl)thieno[2,3-d]pyrimidin-4-amine], the EC50 at human H4 and on human H1 was more than 10 µM each time.

Take `CCN(c1ncnc2scc(C)c12)C(Cc1ccccc1)c1ccco1` (stereo not shown) [Example 282, N-ethyl-N-[1-(furan-2-yl)-2-phenylethyl]-5-methylthieno[2,3-d]pyrimidin-4-amine]: the EC50 at human H4 and at human H1 was more than 10 µM in each case.

For `Cc1csc2ncnc(N3CCN(C(=O)OC(C)(C)C)C[C@H]3CO)c12` [Example 283, tert-butyl (3S)-3-(hydroxymethyl)-4-{5-methylthieno[2,3-d]pyrimidin-4-yl}piperazine-1-carboxylate], the EC50 at human H4 and on human H1 was more than 10 µM throughout.

As to `Cc1csc2ncnc(N3CCN(c4ccc(C(C)(C)C)cc4)CC3)c12` [Example 284, 1-(4-tert-butylphenyl)-4-{5-methylthieno[2,3-d]pyrimidin-4-yl}piperazine], the EC50 at human H4 and at human H1 was more than 10 µM each time.

In the case of `COc1cc2c(cc1OC)CN(c1ncnc3scc(C)c13)CC2` [Example 286, 6,7-dimethoxy-2-{5-methylthieno[2,3-d]pyrimidin-4-yl}-1,2,3,4-tetrahydroisoquinoline], the EC50 at human H4 and at human H1 was more than 10 µM throughout.

As to `Cc1csc2ncnc(N3CCN(c4cccc(C(F)(F)F)c4)CC3)c12` [Example 288, 1-{5-methylthieno[2,3-d]pyrimidin-4-yl}-4-[3-(trifluoromethyl)phenyl]piperazine], the EC50 at human H4 and at human H1 was more than 10 µM in each case.
